Source: publication PMC11312998, “Molecular Pro-Apoptotic Activities of Flavanone Derivatives in Cyclodextrin Complexes: New Implications for Anticancer Therapy” (International Journal of Molecular Sciences, 2024)

Tests used:
Format in all cases: cell-based, human
[1] = test system: RBCs; experiment: Erythrocyte morphology, phase contrast microscopy; details: 100 µmol/L; 24 h, 37 °C
Experimental: The experiments on human blood were performed in accordance with Polish national guidelines, and the study protocols were approved by the Bioethics Committee of the Medical University of Lodz, Poland: approval no (RNN/104/20/KE). The blood samples were obtained from healthy donors at the Blood Donation Centre in Lodz. The procedure for […] for erythrotoxicity studies is given in a previous paper. The influence of the synthesized compounds, together with a reference compound on RBC membrane integrity, was performed by lysis assay, described elsewhere. Briefly, 2% RBC suspension in 0.9% NaCl was incubated at 37 °C for 24 h with the tested compounds at concentrations of 100 µmol/L, 50 µmol/L, 25 µmol/L, 10 µmol/L and 1 µmol/L. The samples were centrifuged at 3000 rpm for 10 min, and the absorbance of the supernatant was measured at 550 nm. The results are presented as a percentage of hemolysis where a sample containing 10 μL of 2.0% v/v Triton X-100 was regarded as a positive control contributing to 100% of hemolysis. A sample containing saline solution represented the spontaneous hemolysis of RBCs (control). The experiments were conducted using at least three different biological materials (n = 3). […] Additionally, erythrocyte morphology was evaluated using a phase contrast Opta-Tech inverted microscope at 400× magnification.

[2] = test system: HCC38; experiment: Nitric oxide (RNS) generation, DAF-FM diacetate probe; details: IC50 concentration, 24 h
Experimental: (§1) Diaminofluorescein-FM diacetate (DAF-FM diacetate, Invitrogen, Carlsbad, CA, USA), is a widely employed cell permeant fluorescent reagent for the detection and quantification of reactive nitrogen species (RNS), particularly nitric oxide (NO). […] However, upon reaction with NO, it undergoes a transformation that yields a highly fluorescent benzotriazole derivative (excitation/emission maxima: λex = 495, λem = 515 nm).
(§2) The cells were seeded in black 96-well fluorometric microplates at a density of 10 × 10^3 cells per well. […] After incubation with the compounds, the medium was removed, the cell monolayer in the wells was washed twice with HBSS (140 mM NaCl, 5 mM KCl, 0.8 mM MgCl2, 1.8 mM CaCl2, 1 mM Na2HPO4, 10 mM HEPES and 1% glucose) and 50 μL of DAF-FM diacetate solution in HBSS was added to each well (final probe concentration 5 μmol/L). Cells were incubated with the probe for 30 min in the dark in an incubator (37 °C). After incubation, the probe was removed and replaced with fresh HBSS buffer and then incubated for an additional 30 min to allow for complete de-esterification of the intra cellular diacetates. After this time, the fluorescence was measured. The measurement was performed at the following excitation and fluorescence emission wavelengths: λex = 495 nm/λem = 515 nm. Fluorescence was measured on a Perkin-Elmer LS-5B spectrofluorometer (MA, USA). Fluorescence intensity values for control cells were arbitrarily set as 100%. The results are presented as percentages of control cells calculated on the basis of a comparison of the fluorescence intensity ratio of test samples and controls (100%) (fluorescence of samples was calculated as Δf in relation to the control).

[3] = test system: Hec-1-A; experiment: as above; details: IC50 concentration, 24 h
Experimental: as §1, §2

RBC morphology (in words) [1] | Structure (SMILES) | increase in nitric oxide production (DAF-FM) [2] | increase in nitric oxide production (DAF-FM) [3]
appearance of single eryptocytes | COc1cccc(/C=C2/C(=O)c3ccccc3OC2c2ccccc2)c1 (stereo not drawn) [Compound 3] |  | 
 | O=C1/C(=C/c2ccccc2)COc2ccccc21 [Compound 1] | approximately 15% | approximately 20%
